Source: patent publication EP0465913B1, “Diaminotrifluoromethylpyrimidine derivatives, process for their production and phospholipase A2 inhibitor containing them” (ISHIHARA SANGYO KAISHA, LTD., priority 1990, dated 1992)
Where two headings read alike, the source gives them in different places.

Legend:
[1] = tested on: increased vascular permeability induced by acetic acid; assay: Inhibitory activity on increased vascular permeability induced by acetic acid (Mouse Whittle method, method C); assay type: in vivo, ddy male mice; details: amount of leaked dye
Protocol: Using ddy male mice, each test group consisted of 4 or 5 mice. A test compound was mixed with Tween 80 [polyoxyethylenesorbitan monooleate (manufactured by Nacalai Tesque K.K.)], and distilled water was added thereto to obtain a 2% Tween 80 suspension, or it was dissolved in the form of a salt in water to obtain an aqueous solution. A test compound was orally administered, and upon expiration of one hour from the administration, 0.7% acetic acid was intraperitonially injected to each mouse in an amount of 0.1 ml/10 g, and at the same time, 2% brilliant blue was intravenously injected into the tail vein in an amount of 0.1 ml/20 g. Thirty minutes after the injection of brilliant blue, the cervical vertebrae were dislocated under anesthesia by chloroform, and the abdorminal cavity was washed with 5 ml of a physiological saline. The washing solution was subjected to centrifugal separation at 3,000 rpm for 10 minutes, and the amount of the dye in the supernatant was measured at 600 nm absorbance by Microplate ELISA Reader (Model 2550EIA Reader, manufactured by Bio-Rad Laboratories). The inhibition rate of the amount of leaked dye in the group in which a test compound was administered relative to the control group was obtained by the following formula. Inhibition rate (%) = (l -(C)/(D)) x 100 [formula] • C: Amount of leaked dye in the group to which a test compound was administered. • D: Amount of leaked dye in the control group.

[2] = target: T1, Porcine pancreatic phospholipase A2 (Sus scrofa, UniProt P00592); assay: Phospholipase A2 inhibitory activity, method A (egg yolk lecithin substrate); assay type: biochemical; details: 1,000 ppm, 37°C for 30 minutes, read-out: % inhibition of PLA2 (1,000 ppm)
T1 construct: purchased Boehringer Mannheim·Yamanouchi K.K. 161454·122416
Protocol: To 10 mg of egg yolk lecithin (manufactured by Wako Pure Chemical Industries Ltd.), 1 ml of glycerine, 2 ml of a 50 mM Tris-HCl buffer solution (pH7.5) [Tris(hydroxymethyl)aminomethane (manufactured by Nacalai Tesque K.K.) was adjusted to pH7.5 with hydrochloric acid], 0.5 ml of a 150 mM calcium chloride solution (calcium chloride was dissolved in a 50 mM Tris-HCl buffer solution) and 0.5 ml of a 0.05% Triton-X100 (manufactured by Nacalai Tesque K.K.) solution (Triton-X100 was dissolved in a 50 mM Tris-HCl buffer solution), were added and dispersed by an agate mortar or dispersed by an ultrasonic processor (Model W-225, manufactured by Heat System-Ultrasonics, Inc.) for 5 minutes (30W) to obtain a substrate.
(§1) Porcine pancreatic phospholipase A2 [(161454·122416) manufactured by Boehringer Mannheim·Yamanouchi K.K.] was used.
To a 96 well microtitration plate (flat bottom, manufactured by Sumitomo Bakelite Medical Co., Ltd.), 40 µl of the substrate, 5 µl of a solution prepared by dissolving 10 mg of a test compound in 500 µl of dimethylsulfoxide, followed by an addition of 500 µl of a 50 mM Tris-HCl buffer solution, and 5 µl of an enzyme solution of 20 ng/ml (prepared by diluting the enzyme in a 50 mM Tris-HCl buffer solution), were added and reacted at 37°C for 30 minutes. After termination of the reaction, the released free fatty acid was quantitatively analyzed in accordance with the ACS-ACOD (acyl CoA synthetase-acyl CoA oxidase) method [a kit of NEFA C test wako (manufactured by Wako Pure Chemical Industries, Ltd.) was used]. The quantitative analysis was made by means of Microplate ELISA Reader (Model 2550EIA Reader, manufactured by Bio-Rad Laboratories) at a wavelength of 540 nm. Separately, such experiments as mentioned above, were carried out at various concentrations (2 µg/ml, 1 µg/ml and 0.5 µg/ml) of phospholipase A2 without a test compound. Then, the concentration of the free fatty acid versus the concentration of phospholipase A2 was plotted.
(§2) From this standard curve, the apparent concentration of phospholipase A2 in the case with a test compound, was read. Then, the percent inhibition of the enzyme was calculated by the following formula. Percent inhibition (%) = (l -(A)/(B)) x 100 [formula] • A: Apparent enzyme concentration when a test compound is added. • B: True enzyme concentration when a test compound is added.

[3] = target: T1, Porcine pancreatic phospholipase A2; assay: Phospholipase A2 inhibitory activity, method B (L-α-dipalmitoylphosphatidylcholine substrate); assay type: biochemical; details: 1,000 ppm, 37°C for 30 minutes, read-out: % inhibition of PLA2 (1,000 ppm)
Protocol: To a solution prepared by dissolving 9.2 mg of L-α-dipalmitoylphosphatidylcholine (manufactured by Nichiyu Liposome K.K.) in 0.5 ml of chloroform, a solution prepared by dissolving 32 mg of sodium cholate (manufactured by Wako Pure Chemical Industries, Ltd.) in 0.5 ml of methanol, was added, followed by mixing. The solvent of the mixture was removed under a nitrogen stream, and then 2.5 ml of a 250 mM sodium chloride solution [prepared by dissolving sodium chloride in a 100 mM Tris-HCl buffer solution {tris(hydroxymethyl)aminomethane (manufactured by Nacalai Tesque K.K.) was adjusted to pH8.0 with hydrochloric acid}] was added thereto, and the mixture was dissolved under stirring to obtain a substrate.
as §1
To a 96 well microtitration plate, 20 µl of a solution containing calcium chloride, bovine serum alubmin (manufactured by Sigma Chemical, Co.) and a Tris-HCl buffer solution (pH8.0) at concentrations of 25 mM, 4.5 mg/ml and 100 mM, respectively, 5 µl of a solution prepared by dissolving 10 mg of a test compound in 500 µl of diemthylsulfoxide, followed by an addition of 500 µl of a 200 mM Tris-HCl buffer solution, 5 µl of an enzyme solution (10 µg/ml) [prepared by dissolving the enzyme in a bovine serum alubmin solution (prepared by dissolving bovine serum alubmin in a 100 mM Tris-HCl buffer solution at a concentration of 1 mg/ml)] and 20 µl of the substrate, were added and reacted at 37°C for 30 minutes. After termination of the reaction, the released free fatty acid was quantitatively analyzed in accordance with the ACS-ACOD (acyl CoA synthetase-acyl CoA oxidase) method [a kit of NEFA C test wako (manufactured by Wako Pure Chemical Industries, Ltd.) was used]. The quantitative analysis was made by means of Microplate ELISA Reader (Model 2550EIA Reader, manufactured by Bio-Rad Laboratories) at a wavelength of 540 nm. Separately, such experiments as mentioned above, were carried out at various concentrations (1 µg/ml, 0.75 µg/ml, 0.5 µg/ml and 0.25 µg/ml) of phospholipase A2 without a test compound. Then, the concentration of the free fatty acid versus the concentration of phospholipase A2 was plotted.
as §2

[4] = Acute toxicity, intravenous injection (LD50); assay type: in vivo; details: mouse, in vivo, ddy male mice, sodium salt, mortality over one week
Protocol: Administration route: Intravenous injection
Using ddy male mice (body weight: 25 - 30 g), each test group consisted of 5 mice. A test compound was dissolved in the form of a sodium salt in a physiological saline or in a 5% glucose aqueous solution, and intravenously injected in an amount of 0.1 ml/10 g body weight. After the injection, the mortality rate was obtained over one week, and the median lethal dose LD50 (mg/kg) was determined.

[5] = tested on: experimental acute pancreatitis model; assay: Effects against acute pancreatitis (Test Example 8, closed duodenal loop method, lesion scores); assay type: in vivo, Crj-CD male rats; details: sodium salt, 6 hours after ventrotomy; for inhibition in vivo at 10 mg/kg: Rattus norvegicus, 10 mg/kg single intravenous injection
Protocol: Using Crj-CD male rats, each test group consisted of 3 rats. An experimental acute pancreatitis model was prepared by a closed duodenal loop method under anethesia with halothane (manufactured by Hoechst Japan) and nitrous oxide (manufactured by Sumitomo Seika K.K.) applied by a general inhalation anesthesia machine (Model EM2 and halothane evaporator F-Model). Each compound (subjected to the test in the form of a sodium salt) was continuously intravenously injected into the tail vein in an amount of 0.4 ml/100 g to 0.6 ml/100 g at a rate of 0.05 ml per minute by a pump (Technicon AA II Proportioning Pump III, manufactured by Technicon Instruments Corporation) or rapidly intravenously injected. No injection was made to a control group. Gross pathological examination was conducted upon expiration of 6 hours after the ventrotomy in the case of the group to which the compound was administered. With respect to each of four lesions among pancreatic lesions i.e. petechia, ecchymosis, pancreatic necrosis and abdominal fatty necrosis, the grade and the distribution of lesions were scored with five grades of 0, 0.5, 1, 2 and 3 (severe lesions are 3). The sum of all lesions was designated as scores of pancreatitis lesions, and the sum of the score of petechia and the score of ecchymosis only was designated as scores of hemorrhagic lesions. The pancreatitis inhibition rate (%) and the hemorrhage inhibition rate (%) were obtained by the following formulas, and the results are shown in Table 13. Pancreatitis inhibition rate (%) = (l -(H)/(G)) x 100 [formula] • H: Scores of pancreatitis lesions of the group to which a test compound was administered. • G: Scores of pancreatitis lesions of the control group. Hemorrhage inhibition rate (%) = (l -(J)/(I)) x 100 [formula] • J: Scores of hemorrhagic lesions of the group to which a test compound was administered. • I: Scores of hemorrhagic lesions of the control group.

[6] = tested on: carrageenin edema; assay: Inhibitory activity on carrageenin edema; assay type: in vivo, Wistar male rats; details: rat; dose 50 mg/kg orally; paw swelling volume three hours after carrageenin
Protocol: Using Wistar male rats (body weight: about 100 g), each test group consisted of 5 rats. A test compound was mixed with Tween 80 [polyoxyethylenesorbitan monooleate (manufactured by Nacalai Tesque K.K.)], and distilled water was added thereto to obtain a 2% Tween 80 suspension, or it was dissolved in the form of a salt in water to obtain an aqueous solution. Either the suspension or the aqueous solution was orally administered in an amount of 200 mg/kg, 100 mg/kg, 50 mg/kg or 25 mg/kg. One hour later, 0.1 ml of a 1% λ-carrageenin solution dissolved in a physiological saline was injected subcutaneously to the right hind paw of each rat to cause inflamation. Three hours later, the paw volume was measured by a paw volume measuring device (manufactured by Ugobasiee K.K.). A swelling volume was obtained from the difference from the value before the inflammation. Inhibition rate (%) = (l -(F)/(E)) x 100 [formula] • F: Average swelling volume in the group to which a test compound was administered. • E: Average swelling volume in the control group.

[7] = read-out: Inhibition rate of hemorrhagic lesions (%)
[8] = read-out: Inhibition rate of pancreatitis lesions (%)

T1 sequence (P00592 23-146): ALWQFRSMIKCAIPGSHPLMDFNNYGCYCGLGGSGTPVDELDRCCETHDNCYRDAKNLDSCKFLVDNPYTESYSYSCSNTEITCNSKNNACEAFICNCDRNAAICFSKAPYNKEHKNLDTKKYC

## CCCCCCCCC(=O)Nc1cc(C(F)(F)F)cnc1NS(C)(=O)=O [Compound No. 4]
[1]; dose 50 mg/kg orally
  Inhibition rate (%): 43%
[2]
  inhibition at 1000 ppm: 74%

## CC(C)(C)CC(=O)Nc1cc(C(F)(F)F)cnc1NS(C)(=O)=O [compound 7]
[1]; dose 20 mg/kg orally
  Inhibition rate (%): 53%
[3]
  inhibition at 1000 ppm: 50%

## CS(=O)(=O)Nc1ncc(C(F)(F)F)cc1NC(=O)C(F)(F)F [compound 12]
[4]; iv
  LD50 at 168 h: > 150 mg/kg
[2]
  inhibition at 1000 ppm: 89%

## CCS(=O)(=O)Nc1ncc(C(F)(F)F)cc1NC(=O)C(F)(F)Cl [compound 20]
[1]; dose 20 mg/kg orally
  Inhibition rate (%): 48%
[2]
  inhibition at 1000 ppm: 74%

## CCOC(=O)NC(=S)Nc1cc(C(F)(F)F)cnc1NS(=O)(=O)CC [compound 21]
[5]; 27 mg/kg continuous intravenous injection
  Inhibition rate of hemorrhagic lesions (%): 57%
[4]
  LD50 at 168 h: > 75 mg/kg
[2]
  inhibition at 1000 ppm: 62%

## O=C(Nc1cc(C(F)(F)F)cnc1NS(=O)(=O)c1ccccc1)C(F)(F)F [compound 24]
[5]; 11 mg/kg continuous intravenous injection
  Inhibition rate of hemorrhagic lesions (%): 68%
[4]; iv
  LD50 at 168 h: > 150 mg/kg
[2]
  inhibition at 1000 ppm: 66%

## CS(=O)(=O)NNc1ncc(C(F)(F)F)cc1NC(=O)C(F)(F)C(F)(F)F [compound 40]
[4]; iv
  LD50 at 168 h: 50 to 100 mg/kg

## CNc1ncc(C(F)(F)F)cc1NC(=O)C(F)(F)C(F)(F)F [compound 41]
[1]; dose 100 mg/kg orally
  Inhibition rate (%): 85%
[2]
  inhibition at 1000 ppm: 89%

## CS(=O)(=O)Nc1ncc(C(F)(F)F)cc1NC(=O)Cc1ccccc1 [compound 60]
[5]; [7]
  inhibition in vivo at 10 mg/kg: 92%
[5]; [8]
  inhibition in vivo at 10 mg/kg: 94%
[6]
  Inhibition rate (%): 27%
[4]; iv
  LD50 at 168 h: > 60 mg/kg
[3]
  inhibition at 1000 ppm: 41%

## CS(=O)(=O)Nc1ncc(C(F)(F)F)cc1NC(=O)Cc1cccs1 [compound 61]
[5]; [7]
  inhibition in vivo at 10 mg/kg: 79%
[5]; [8]
  inhibition in vivo at 10 mg/kg: 64%
[4]; iv
  LD50 at 168 h: > 80 mg/kg
[3]
  inhibition at 1000 ppm: 36%

## CS(=O)(=O)Nc1ncc(C(F)(F)F)cc1NC(=O)C1CC=CCC1 (stereo not drawn) [compound 68]
[5]; [7]
  inhibition in vivo at 10 mg/kg: 74%
[5]; [8]
  inhibition in vivo at 10 mg/kg: 77%
[4]; iv
  LD50 at 168 h: > 80 mg/kg
[3]
  inhibition at 1000 ppm: 81%

## CC=CC=CC(=O)Nc1cc(C(F)(F)F)cnc1NS(C)(=O)=O [compound 73]
[5]; [7]
  inhibition in vivo at 10 mg/kg: 74%
[5]; [8]
  inhibition in vivo at 10 mg/kg: 79%
[6]
  Inhibition rate (%): 20%
[4]; iv
  LD50 at 168 h: > 80 mg/kg
[3]
  inhibition at 1000 ppm: 53%

## CS(=O)(=O)Nc1ncc(C(F)(F)F)cc1NC(=O)c1ccc(F)c(F)c1 [compound 77]
[5]; [7]
  inhibition in vivo at 10 mg/kg: 66%
[5]; [8]
  inhibition in vivo at 10 mg/kg: 70%
[6]
  Inhibition rate (%): 22%
[4]; iv
  LD50 at 168 h: > 80 mg/kg
[3]
  inhibition at 1000 ppm: 61%

## O=C(Nc1cc(C(F)(F)F)cnc1NS(=O)(=O)C(F)(F)F)C1CCCCC1 [compound 91]
[6]
  Inhibition rate (%): 23%
[4]; iv
  LD50 at 168 h: > 80 mg/kg
[3]
  inhibition at 1000 ppm: 81%

## CCCOC(=O)Nc1cc(C(F)(F)F)cnc1NS(=O)(=O)C(C)C [compound 106]
[5]; [7]
  inhibition in vivo at 10 mg/kg: 96%
[5]; [8]
  inhibition in vivo at 10 mg/kg: 97%
[6]
  Inhibition rate (%): 19%
[4]
  LD50 at 168 h: > 20 mg/kg
[3]
  inhibition at 1000 ppm: 78%
